# Patent US20050080090A1, “Naphthalene derivatives” (priority 1993, published 2005)
# Counter-ions that a name gives are not always drawn.
row,Structure (SMILES),melting point
1,"CN1CCN(c2cccc3ccc(NC(=O)c4ccc(Cl)cc4)cc23)CC1 [Example 8, 7-(4-Chlorobenzamido)-1-(4-methyl-1-piperazinyl)-naphthalene]",174 to 175 °C
2,"CN1CCN(c2cccc3ccc(NC(=O)Nc4ccccc4)cc23)CC1 [Example 19, 7-(Phenylaminocarbonylamino)-1-(4-methyl-1-piperazinyl)-naphthalene]",213 to 214 °C
3,"CN1CCN(c2cccc3ccc(NC(=O)c4ccccc4)cc23)CC1 [Example 1, 7-Benzamido-1-(4-methyl-1-piperazinyl)-naphthalene]",173 to 175 °C
4,c1cc(N2CCNCC2)c2cc(-n3cnc4ncccc43)ccc2c1 (as salt: hydrochloride),> 250 °C
5,CN1CCC(c2cccc3ccc(N)cc23)CC1,169.5 to 171 °C
6,"CN1CCN(c2cccc3ccc(NC(=O)c4cccc(Cl)c4)cc23)CC1 [Example 6, 7-(3-Chlorobenzamido)-1-(4-methyl-1-piperazinyl)-naphthalene]",147 to 148 °C
7,"CN1CCN(c2cccc3ccc(-n4cnc5ccccc54)cc23)CC1 [Example 37, 7-(Benzimidazol-1-yl)-1-(4-methyl-1-piperazinyl)-naphthalene]",148 to 150 °C
8,"CN1CCN(c2cccc3ccc(-n4cnc5ncccc54)cc23)CC1 [Example 35, 7-(Imidazolo[4,5-b]pyridin-1-yl)-1-(4-methyl-1-piperazinyl)-naphthalene]",107 to 112 °C
9,"CN1CCN(c2cccc3ccc(NCc4ccccc4)cc23)CC1 [Example 14, 7-(Benzylamino)-1-(4-methyl-1-piperazinyl)-naphthalene]",115 to 117 °C
10,CN1CCCC(c2cccc3ccc(N)cc23)C1 (stereo not drawn),117 to 120 °C
11,Nc1ccc2cccc(N3CCNCC3)c2c1,184 to 186 °C
12,"CN1CCN(c2cccc3ccc(Nc4ccc([N+](=O)[O-])cn4)cc23)CC1 [Example 27, 7-(5-Nitro-2-pyridylamino)-1-(4-methyl-1-piperazinyl)-naphthalene]",121 to 125 °C

# More lines, now with the values ahead:
row,melting point,Structure (SMILES)
1,140 to 170 °C,"CN1CCCC(c2cccc3ccc(NC(=O)c4ccccc4)cc23)C1 (stereo not drawn) (as salt: HCl) [Example 64, 7-Benzamido-1-(1-methyl-3-piperidinyl)-naphthalene]"
2,173 to 174.5 °C,"CCN1CCN(c2cccc3ccc(NC(=O)c4ccc(Cl)cc4)cc23)CC1 [Example 67, 7-(4-Chlorobenzamido)-1-(4-ethyl-1-piperazinyl)-naphthalene]"
3,100 to 101 °C,"CN1CCN(c2cccc3ccc(-c4cccc(NS(C)(=O)=O)c4)cc23)CC1 [Example 42, 7-(3-Methylsulfonylaminophenyl)-1-(4-methyl-1-piperazinyl)-naphthalene]"
4,111.5 to 112 °C,"CN1CCN(c2cccc3ccc(OCc4ccc(Cl)cc4)cc23)CC1 [Example 40, 7-(4-Chlorobenzyloxy)-1-(4-methyl-1-piperazinyl)-naphthalene]"
5,217.5 to 218.5 °C,"CN1CCN(c2cccc3ccc(C(O)(c4ccccc4)c4ccccc4)cc23)CC1 [Example 45, 7-(Diphenylhydroxymethyl)-1-(4-methyl-1-piperazinyl)-naphthalene]"
6,67.5 to 68 °C,"CN1CCN(c2cccc3ccc(OCc4cccc(Cl)c4)cc23)CC1 [Example 54, 7-(3-Chlorobenzyloxy)-1-(4-methyl-1-piperazinyl)-naphthalene]"
7,230 to 231.5 °C,"O=C(Nc1ccc2cccc(C[C@H]3CCCN3)c2c1)c1ccc(Cl)cc1 (as salt: HCl) [Example 71, 7-(4-Chlorobenzamido)-1-(pyrrolidin-2-(R)-ylmethyl)-naphthalene]"
8,82 to 82.5 °C,"CN1CCN(c2cccc3ccc(OC(=O)c4ccccc4)cc23)CC1 [Example 52, 7-Benzoyloxy-1-(4-methyl-1-piperazinyl)-naphthalene]"
9,113 to 114 °C,"CN1CCN(c2cccc3ccc(OCc4ccc(Cl)c(Cl)c4)cc23)CC1 [Example 50, 7-(3,4-Dichlorobenzyloxy)-1-(4-methyl-1-piperazinyl)-naphthalene]"
